From patent publication US20170313758A1, “Polypeptides for the Treatment of Angiogenesis or Lymphangiogenesis-Related Diseases” (INSERM (Institut National de la Sante et de la Recherche …, priority 2014, published 2017)

B1: EMMPRIN D136A (receptor)
chain: AAGTVFTTVEDLGSKILLTCSLNDSATEVTGHRWLKGGVVLKEDALPGQKTEFKVDSDDQWGEYSCVFPPEPMGTANIQLHGPPRVKAVKSSEHINEGETAMLVCKSESVPPVTAWAWYKITDSEDKALMNGSESRFFVSSSQGRSELHIENLNMEADPGQYRCNGTSSKGSDQAIITLRVCSHLAALWPFLGIVAEVLVLVTIIFIYEKRRKPEDVLDDDDAGSAPLKSSGQHQNDKGKNVRQRNSS
notes: Full-length EMMPRIN cDNA mutant transfected into BLM-EMMPRIN-miRNA cells; also called control D136A; negative control D136A mutant

What was measured:
HMEC endothelial cells = experiment: MTT assay, proliferation of HMEC endothelial cells; assay type: cell-based, human; conditions: treatment for 48 h, FIG. 13
Procedure: (§1) Human microvascular endothelial (HMEC) cells line derived from dermal microvasculature (T. Lawley, Emory University, Atlanta, GA) were maintained in MCDB-131 medium (Gibco, Invitogen) with 10% fetal bovine serum (FBS) (Invitrogen), 2 ml glutamine (Invitrogen), 10 ng/ml endothelial growth factor (Upstate Biotechnology/Millipore), and 1 μg/ml hydrocortisone (Sigma-Aldrich). Primary melanoma M10 cells, established from patient primary nodular melanoma were maintained in RPMI medium (Gibco, Invitogen) with 10% FBS, Hepes 1 M, pyruvate Nas, and glutamine (Invitrogen). Human breast carcinoma MDA-MB-231 cells were maintained in Dulbecco's modified Eagle's medium (DMEM) (Gibco, Invitogen) with 10% FBS (Invitrogen) and 2m1 glutamine (Invitrogen). Melanoma BLM cells (American Type Culture Collection (ATCC Manassas, Va.)) were maintained in DMEM containing 4.5 g/l glucose, 10% FBS, 100 U/ml penicillin and […] streptomycin. HEK293T cells (ATCC) were cultured in DMEM medium (Gibco, Invitogen) supplemented with 10% FBS (Invitrogen), 100 U/ml penicillin, 100 mg/ml streptomycin and 2 ml glutamine (Invitrogen).
As VEGFR-2 has been implicated in regulation of endothelial cells migration/invasion and proliferation processes, we first investigated the effect of EMMPRIN inhibitor peptide (PI) on endothelial cell proliferation. […]

M10 melanoma cells = experiment: Modified Boyden chamber invasion assay, M10 melanoma cells; assay type: cell-based, human; conditions: 500 nM, compared to control PC-treated cells, mean, FIG. 14
Procedure: as §1, with “HEK293T cells (ATCC) were cultured in DMEM medium (Gibco, Invitogen) supplemented with 10% FBS (Invitrogen), 100 U/ml penicillin, 100 mg/ml streptomycin and 2 ml glutamine (Invitrogen).” left out
The in vitro migration (on uncoated filters) and invasion (on coated filters with matrigel, BD Bioscience) were performed using a modified Boyden chamber in 24-well plates and […] pore filter inserts (BD Bioscience). After 24h of incubation, cells were fixed, stained with crystal violet 0.5% and counted under a light microscope. […]

[1] = molecular target: T1, EMMPRIN/VEGFR-2 interaction (Homo sapiens, UniProt P35968); experiment: Immunoprecipitation of EMMPRIN/VEGFR-2 interaction in treated cells; assay type: cell-based; conditions: FIG. 15
T1 construct: endogenous in cells; HMEC and M10 are the cells used in the neighbouring peptide experiments
Procedure: For immunoprecipitation, cell lysates were incubated with antibodies against targeted proteins and Protein G-sepharose beads (Sigma). Immunoprecipitated proteins were subjected to sodium dodecyl sulphate-polyacrylamide gel electrophoresis then transferred to Nitrocellulose membranes and probed with anti-EMMPRIN mAb (555961, BD-Pharmingen), anti-VEGF (C-1) mAb (Sc-7269, Santa Cruz), anti-VEGFR-2 rabbit pAb (Sc-504, Santa Cruz-) or anti-pVEGFR-2 (Tyr 1175) rabbit mAb (2478, Cell Signaling). The proteins were visualized with ECL reagent (Pierce), and their expression was normalized relative to total cell lysate protein concentration.
(§2) No effect on ERK phosphorylation could be observed when the cells were treated with PC (FIGS. 15 and 16).

ERK phosphorylation = experiment: ERK activation signalling (ERK phosphorylation) in treated cells; assay type: cell-based; conditions: FIG. 16
Procedure: as §2

VEGFR-2 = molecular target: T2, VEGFR-2 (human, UniProt P35968 20-1356); experiment: VEGFR-2 immunoprecipitation, EMMPRIN western blot, transfected BLM-EMMPRIN-miRNA cells
T2 construct: Endogenous receptor of human cells (HMEC, M10, MDA-MB-231, BLM); the whole entry is named; also called KDR
Procedure: For immunoprecipitation, cell lysates were incubated with antibodies against targeted proteins and Protein G-sepharose beads (Sigma). […] The proteins were visualized with ECL reagent (Pierce), and their expression was normalized relative to total cell lysate protein concentration.

T1 sequence (P35968 20-1356): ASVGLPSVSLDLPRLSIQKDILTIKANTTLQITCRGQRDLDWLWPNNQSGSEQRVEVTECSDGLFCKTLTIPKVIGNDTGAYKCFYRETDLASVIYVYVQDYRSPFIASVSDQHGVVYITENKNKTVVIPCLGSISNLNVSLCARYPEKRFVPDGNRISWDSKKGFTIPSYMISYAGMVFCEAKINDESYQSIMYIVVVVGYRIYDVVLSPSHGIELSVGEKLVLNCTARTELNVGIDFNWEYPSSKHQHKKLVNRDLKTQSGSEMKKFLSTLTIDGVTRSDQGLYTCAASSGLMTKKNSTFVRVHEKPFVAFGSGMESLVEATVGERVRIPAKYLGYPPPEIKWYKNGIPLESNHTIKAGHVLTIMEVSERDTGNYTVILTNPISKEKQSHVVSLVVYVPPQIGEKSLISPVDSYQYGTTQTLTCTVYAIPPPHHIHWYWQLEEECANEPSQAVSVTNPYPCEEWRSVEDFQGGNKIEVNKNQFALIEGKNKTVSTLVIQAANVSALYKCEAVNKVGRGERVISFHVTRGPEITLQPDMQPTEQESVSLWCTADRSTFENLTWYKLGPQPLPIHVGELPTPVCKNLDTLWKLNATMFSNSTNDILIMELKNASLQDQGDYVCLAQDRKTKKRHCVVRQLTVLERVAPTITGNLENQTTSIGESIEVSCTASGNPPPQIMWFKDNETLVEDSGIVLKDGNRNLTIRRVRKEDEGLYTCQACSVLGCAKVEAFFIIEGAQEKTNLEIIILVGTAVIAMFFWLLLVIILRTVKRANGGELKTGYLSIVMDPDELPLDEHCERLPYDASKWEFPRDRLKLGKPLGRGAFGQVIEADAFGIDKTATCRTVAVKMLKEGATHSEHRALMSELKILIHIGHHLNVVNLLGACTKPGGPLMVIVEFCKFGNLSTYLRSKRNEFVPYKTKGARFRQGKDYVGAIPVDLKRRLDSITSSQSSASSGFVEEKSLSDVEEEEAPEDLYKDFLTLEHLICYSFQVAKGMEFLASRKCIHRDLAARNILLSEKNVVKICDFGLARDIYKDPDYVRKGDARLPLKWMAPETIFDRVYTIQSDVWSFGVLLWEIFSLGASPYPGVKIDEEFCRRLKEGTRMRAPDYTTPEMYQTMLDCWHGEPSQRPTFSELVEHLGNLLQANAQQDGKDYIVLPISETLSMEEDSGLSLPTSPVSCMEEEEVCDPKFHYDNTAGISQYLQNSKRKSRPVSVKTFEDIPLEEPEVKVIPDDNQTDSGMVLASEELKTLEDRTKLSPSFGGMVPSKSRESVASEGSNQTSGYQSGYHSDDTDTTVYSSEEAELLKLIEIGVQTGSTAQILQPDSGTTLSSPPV
T2 sequence (P35968 20-1356 limits assumed): as the sequence (P35968 20-1356) above

Molecule	inhibition of proliferation of HMEC cells (HMEC endothelial cells)	decrease in M10 cell invasion capacity (M10 melanoma cells) [%]	EMMPRIN/VEGFR-2 interaction ([1]; 100 nM)	EMMPRIN/VEGFR-2 interaction ([1]; 500 nM)	ERK phosphorylation (ERK phosphorylation)	binding result (VEGFR-2)
PI: EMMPRIN peptide inhibitor (PI); sequence not specified in the text	approx. 50%	60	able to decrease EMMPRIN/VEGFR-2 interaction	able to decrease EMMPRIN/VEGFR-2 interaction	significant decrease	–
B1	–	–	–	–	–	binds
